Assay results as given in patent US20210284647A1, “N-(3-(IMIDAZO[1,2-B]PYRIDAZIN-3-YLETHYNYL)-4-METHYLPHENYL)-5-PHENYL-4,5-DIHYDRO-1H-PYRAZOLE-1-CARBOXAMIDE DERIVATIVE, AND PHARMACEUTICAL COMPOSITION CONTAINING SAME AS ACTIVE INGREDIENT FOR TREATING KINASE-RELATED DISEASES” (VORONOIBIO INC., priority 2018, published 2021).

Legend:
[1] = test system: human Jurkat T cells deficient in FADD; assay: Cell protection effect under apoptosis-inducing condition (TNF-α); assay type: cell-based; details: 40 ng of TNF-α, 50 hours, CellTiter-Glo, read-out: I2.I Cell EC50
Outline: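 FADD-deficient Jurkat cells (10,000/well) were cultured for 24 h, then exposed to TNF-α (40 ng) plus compound in a 3-fold series from 1 µM top (0.05% DMSO) for 50 h. Viability was read by CellTiter-Glo luminescence. EC50 is the concentration giving 50% inhibition of apoptosis relative to solvent control.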

human GST-RIPK1 = target: T1, human GST-RIPK1 (Homo sapiens, UniProt Q13546); assay: RIPK1 inhibitory activity (ADP-Glo kinase assay); assay type: biochemical; details: human GST-RIPK1 10 ng, ATP 50 uM, 25° C. for 4 hours, read-out: Enzyme IC50
T1 construct: GST; purchased signalchem
T1 sequence (Q13546 1-375 limits assumed): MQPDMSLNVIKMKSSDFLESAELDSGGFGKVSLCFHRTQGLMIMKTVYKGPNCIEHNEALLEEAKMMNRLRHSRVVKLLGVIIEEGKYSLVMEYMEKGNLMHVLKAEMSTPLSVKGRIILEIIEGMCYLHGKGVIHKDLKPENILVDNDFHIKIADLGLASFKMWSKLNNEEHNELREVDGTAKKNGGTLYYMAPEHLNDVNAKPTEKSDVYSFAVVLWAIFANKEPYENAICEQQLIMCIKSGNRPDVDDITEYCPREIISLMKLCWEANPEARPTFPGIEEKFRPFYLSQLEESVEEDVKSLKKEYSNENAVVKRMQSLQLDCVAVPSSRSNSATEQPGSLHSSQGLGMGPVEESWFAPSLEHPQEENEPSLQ
Outline: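 Purified human GST-RIPK1 (10 ng) was reacted with 50 uM ATP and substrate in Tris-HCl pH 7.4, MgCl2, BSA, DTT buffer for 4 h at 25 °C. ADP formed was read by ADP-Glo luminescence. IC50 is relative to solvent control, from three data sets.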

Row | EC50 [1] [µM] | IC50 (human GST-RIPK1) [µM] | Compound
1 | 0.0009 | 0.0396 | O=C(Nc1cccn2c(C#Cc3cccc(NC(=O)N4N=CCC4c4ccccc4)c3)cnc12)C1CCC1 (centres unmarked) [Example 63, N-(3-((8-(cyclobutanecarboxamido)imidazo[1,2-a]pyridin-3-yl)ethynyl)phenyl)-5-phenyl-4,5-dihydro-1H-pyrazole-1-carboxamide 2,2,2-trifluoroacetate]
2 | 0.0016 | 0.0134 | O=C(Nc1cccc(C#Cc2cnc3ccccn23)c1)N1N=CCC1c1ccccc1 (centres unmarked) [Example 55, N-(3-(imidazo[1,2-a]pyridin-3-ylethynyl)phenyl)-5-phenyl-4,5-dihydro-1H-pyrazole-1-carboxamide]
3 | 0.0015 | 0.0127 | O=C(Nc1cccc(C#Cc2cnc3cccnn23)c1)N1N=CCC1C1CCCCC1 (centres unmarked) [Example 42, 5-cyclohexyl-N-(3-(imidazo[1,2-b]pyridazin-3-ylethynyl)phenyl)-4,5-dihydro-1H-pyrazole-1-carboxamide]
4 | 0.321 | 0.503 | Cc1ccc(NC(=O)N2N=CC[C@@H]2c2ccc(F)cc2)cc1C#Cc1cnc2cccnn12 [Example 13, (R)-5-(4-fluorophenyl)-N-(3-(imidazo[1,2-b]pyridazin-3-ylethynyl)-4-methylphenyl)-4,5-dihydro-1H-pyrazole-1-carboxamide 2,2,2-trifluoroacetate]
